Several values for one entry are separate records, joined by “and”; a condition that tells them apart may be missing. Equal values may be shown once.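 Step 1: Grow cells in 96-well plates. Step 2: Expose to compound for 48 hours at 5 concentrations. Step 3: Interpolate endpoints linearly; if unreached, use highest concentration. GI50: concentration for 50% inhibition of growth.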 Activity calls are given as the source filed them. Cut-off read from the data, not from the text of the source: active = GI50 up to about 1.1 µM and inactive = higher.
Experiments:
Experiment in all cases: DTP human tumour cell line panel, 48 h
IGROV-1 = system: IGROV-1
NCI-H226 = system: NCI-H226
PC-3 = system: PC-3
SN12C = system: SN12C
KM12 = system: KM12
NCI/ADR-RES = system: NCI/ADR-RES
A549 = system: A549
MDA-N = system: MDA-N
RXF 393 = system: RXF 393
BT-549 = system: BT-549
SK-MEL-2 = system: SK-MEL-2
MCF7 = system: MCF7
SNB-19 = system: SNB-19
UACC-62 = system: UACC-62
HOP-62 = system: HOP-62
OVCAR-5 = system: OVCAR-5
HL-60 = system: HL-60
SF-268 = system: SF-268
SNB-75 = system: SNB-75

Measured: GI50

COc1c2occc2c(OC)c2c(=O)c(S(=O)(=O)NC(=O)Nc3ccc(Cl)cc3)coc12
inactive: IGROV-1 > 10 µM | NCI-H226 > 10 µM | PC-3 > 10 µM | SN12C > 10 µM | KM12 > 10 µM | NCI/ADR-RES > 10 µM | A549 > 10 µM | MDA-N > 10 µM | RXF 393 > 10 µM | BT-549 > 10 µM | SK-MEL-2 > 10 µM | MCF7 > 10 µM | SNB-19 > 10 µM | UACC-62 > 10 µM | HOP-62 > 10 µM | OVCAR-5 > 10 µM | HL-60 > 10 µM | SF-268 > 10 µM

c1sc(NC2=NCCO2)c2c1CCCC2
inactive: IGROV-1 > 100 µM | NCI-H226 > 100 µM | PC-3 99.8 µM | KM12 > 100 µM | NCI/ADR-RES > 100 µM | A549 > 100 µM | MDA-N > 100 µM | RXF 393 > 100 µM | BT-549 > 100 µM | SK-MEL-2 > 100 µM | MCF7 > 100 µM | SNB-19 > 100 µM | UACC-62 > 100 µM | OVCAR-5 > 100 µM | HL-60 > 100 µM | SNB-75 > 100 µM

O=C(c1ccncc1)C1C(=O)c2ccccc2C1C1(O)c2ccccc2CC1C(O)c1ccncc1 (stereo not drawn)
inactive: IGROV-1 40.5 µM | NCI-H226 > 100 µM | SN12C 46.9 µM | KM12 35.3 µM | NCI/ADR-RES 46.6 µM | A549 29.6 µM | MDA-N 13.3 µM | RXF 393 39.6 µM | BT-549 45.9 µM | SK-MEL-2 23.6 µM | MCF7 39.6 µM | SNB-19 46.2 µM | UACC-62 18.7 µM | HOP-62 35.6 µM | OVCAR-5 65.6 µM | SNB-75 50 µM | SF-268 46.7 µM

O=C(COc1ccc(OCC(=O)N/N=C/c2ccc(-c3ccc(Cl)cc3Cl)o2)c(Cl)c1)N/N=C/c1ccc(-c2ccc(Cl)cc2Cl)o1
inactive: IGROV-1 > 100 µM | NCI-H226 45.7 µM | PC-3 33.7 µM | SN12C > 100 µM | KM12 > 100 µM | NCI/ADR-RES 12.3 µM | A549 85.5 µM | MDA-N 31.6 µM | RXF 393 33.6 µM | BT-549 83.9 µM | SK-MEL-2 17.1 µM | MCF7 41.8 µM | SNB-19 > 100 µM | UACC-62 27.9 µM | HOP-62 27.5 µM | OVCAR-5 > 100 µM | HL-60 16.4 µM | SF-268 41.6 µM

Cc1cc2c(cc1N)C(C)C1(CCC(=O)N2Cc2ccccc2)OCCO1 (stereo not drawn)
inactive: IGROV-1 > 100 µM | NCI-H226 > 100 µM | PC-3 > 100 µM | SN12C > 100 µM | KM12 > 100 µM | NCI/ADR-RES > 100 µM | A549 > 100 µM | MDA-N > 100 µM | BT-549 > 100 µM | SK-MEL-2 > 100 µM | MCF7 > 100 µM | SNB-19 > 100 µM | UACC-62 > 100 µM | HOP-62 > 100 µM | OVCAR-5 > 100 µM | SNB-75 32.3 µM | SF-268 83.4 µM

N#CCCN(CCC#N)c1ccc(/C=C2\N=C(c3ccccc3)N(c3ccc(Cl)cc3)C2=O)cc1
inactive: IGROV-1 > 100 µM | NCI-H226 > 100 µM | PC-3 > 100 µM | SN12C > 100 µM | KM12 58.7 µM | NCI/ADR-RES > 100 µM | A549 > 100 µM | MDA-N > 100 µM | RXF 393 > 100 µM | BT-549 > 100 µM | SK-MEL-2 76.6 µM | MCF7 > 100 µM | SNB-19 > 100 µM | UACC-62 39.7 µM | HOP-62 > 100 µM | OVCAR-5 > 100 µM | HL-60 > 100 µM | SF-268 > 100 µM

COC1C(OC(C)=O)CC(=O)OC(C)C/C=C/C=C\C(O)C(C)CC(CC=O)C1OC1OC(C)C(OC2CC(C)(O)C(OC(=O)CC(C)C)C(C)O2)C(N(C)C)C1O (stereo not drawn)
inactive: IGROV-1 32.4 µM and 25.6 µM | NCI-H226 > 100 µM | PC-3 79.6 µM | SN12C > 100 µM | NCI/ADR-RES > 100 µM | A549 > 100 µM | MDA-N 61.2 µM | RXF 393 82 µM | BT-549 > 100 µM | SK-MEL-2 > 100 µM | MCF7 > 100 µM and 62.7 µM | SNB-19 > 100 µM and 77.6 µM | UACC-62 > 100 µM | HOP-62 > 100 µM | OVCAR-5 > 100 µM | SNB-75 > 100 µM | SF-268 56 µM

CC1(C)CC2=NC(SSC3=C(C#N)C(c4ccc(Br)cc4)C4=C(O)CC(C)(C)CC4=N3)=C(C#N)C(c3ccc(Br)cc3)C2=C(O)C1 (stereo not drawn)
inactive: IGROV-1 > 100 µM | NCI-H226 > 100 µM | PC-3 > 100 µM | SN12C > 100 µM | KM12 > 100 µM | NCI/ADR-RES > 100 µM | A549 > 100 µM | MDA-N > 100 µM | RXF 393 > 100 µM | BT-549 > 100 µM | SK-MEL-2 > 100 µM | SNB-19 > 100 µM | UACC-62 > 100 µM | HOP-62 > 100 µM | OVCAR-5 > 100 µM | HL-60 46.6 µM | SF-268 > 100 µM
